Test results taken from patent publication US20170360795A1, “TREATMENT OF CANCERS USING PI3 KINASE ISOFORM MODULATORS” (INFINITY PHARMACEUTICALS, INC., priority 2013, published 2017).
Entries after “also recorded” stand apart in the source; their conditions may differ. Marks after values point to notes of the source that are not given here.

How the values were obtained:
[1] = Pharmacokinetics / absolute bioavailability, dog; format: in vivo, Beagle dog; details: PO, 5 mg/kg, calculated using 0.5 mg/kg IV dose as reference and AUC0-last
[2] = system: hemodynamic and electrocardiographic parameters; assay: Cardiovascular telemetry study; format: in vivo, cynomolgus monkey; details: up to 150 mg/kg
From the text: Four non-naive, male monkeys implanted with radiotelemetry transmitters were utilized during the conduct of this study.

[3] = embryo/fetal developmental toxicity study in rabbits; details: female, rabbit, in vivo, 75 mg/kg/day; pregnant rabbits, last day of dosing; read-out: mean AUCO24 hr at the NOAEL
[4] = system: CD63 expression on CCR3+ basophils; assay: ex vivo anti-FcεR1 basophil activation assay, healthy subjects; format: in vivo, human; details: single and multiple doses
[5] = embryo/fetal developmental toxicity study in rats; details: female, rat, in vivo, 35 mg/kg/day; pregnant rats, last day of dosing; read-out: mean AUCO24 hr at the NOAEL
CLL cells = assay: production of reactive oxygen species; format: cell-based; details: n=6
From the text: (FIGS. 35 and 36). […] In addition, this direct inhibitory effect on CLL cells in the lymph nodes could lead to rapid and prolonged responses in cancer patients.

PTEN deletion cell lines = assay: sensitivity of PTEN deletion cell lines; format: cell-based
[6] = clinical study in healthy adult subjects: pharmacokinetics; format: in vivo, human
U2932 = assay: cellular growth inhibition assay (72 hour CTG), DLBCL; format: cell-based
[7] = Pharmacokinetics / absolute bioavailability, mouse; format: in vivo, BALB/c mouse; details: PO, 10 mg/kg, calculated using AUC0-last
hematologic malignancies = assay: Phase 1 dose-escalation study in hematologic malignancies: tumor response; format: in vivo, human; details: for responses: 8, 15 and 25 mg BID
serum biomarkers = assay: Serum biomarkers in patients, 28 day cycles; format: in vivo, human
central nervous system = assay: Neurofunctional study (FOB, motor activity); format: in vivo, Sprague-Dawley rat

In the case of `C[C@H](Nc1ncnc2[nH]cnc12)c1cc2cccc(Cl)c2c(=O)n1-c1ccccc1` [Compound 292], the Foral [1] is reported as 97g'i %, the “waveform abnormalities or arrhythmias” value [2] is reported as “no waveform abnormalities or arrhythmias” and the AUC [3] is reported as 66200 ng·h/mL. The “time of maximum reduction of basophil activation” value [4] was 1 hr post dose, the “reduction of basophil activation (CD63 expression)” value ([4]; all dose levels) was “dose-dependent reduction; also recorded: reduced in a dose-dependent manner” and the AUC [5] was 62200 ng·h/mL. For the same molecule, the “production of reactive oxygen species” value (CLL cells) was “enhanced”, the sensitivity (PTEN deletion cell lines; 145 subsets of PTEN deletion cell lines) was “differentially susceptible” and the sensitivity (PTEN deletion cell lines; PTEN wild type cells) was “not sensitive”. For the same molecule, the accumulation ([6]; 14 days of Q12 h oral administration) was “less than 2 fold”, the exposure versus dose ([6]; across the dose ranges evaluated) was “increased proportionally to dose” and the “IC50, cellular growth inhibition” value (U2932) was “non responsive”. The Foral [7] was 7i %, the “responders with response by first assessment (within about 2 months)” value (hematologic malignancies; B cell lymphoma, 16 out of 18 responders) was 89% and the “Time to Response in Months Median (range)” value (hematologic malignancies; CLL/SLL (11 evaluable)) was 2.9 (1.8, 5.6) Months. The “Best Observed Response: SD” value (hematologic malignancies; CLL/SLL (11 evaluable), four nodal responses) was 4 ^c n, the responses (hematologic malignancies; CLL/SLL) was 2/3 and the “Median Time to Response in Months (range)” value (“Median Time to Response” below) (hematologic malignancies; CTCL (T/E 10/4)) was 1.7 (—) ^ Months. For the same molecule, the “Time to Response in Months Median (range)” value (hematologic malignancies; HL (2 evaluable)) was 1.7 (1.7, 1.7) Months, the “Median Time to Rsp in Months (Range)” value (hematologic malignancies; HL (T/E 3/3)) was 1.7 Months and the “Time to Response in Months Median (range)” value (hematologic malignancies; MCL (3 evaluable)) was 1.9 (1.9, 1.9) Months. The “Median Time to Rsp in Months (Range)” value (hematologic malignancies; MCL (T/E 9/6)) was 1.8 (1.6-1.9) Months, the “Median Time to Response” value (hematologic malignancies; PTCL (T/E 7/5)) was 2.3 (1.9-2.7) Months and the “patients with at least 50% tumor response (CT scans)” value (hematologic malignancies; T cell lymphoma (2 PTCL and 1 CTCL)) was 33%. For the same molecule, the “Time to Response in Months Median (range)” value (hematologic malignancies; T-Cell Lymphoma (6 evaluable)) was 2.4 (1.8, 3.1) Months, the “Median Time to Response” value (hematologic malignancies; TCL Total (T/E 17/9)) was 1.9 (1.7-2.7) Months and the “Time to Response in Months Median (range)” value (hematologic malignancies; iNHL (13 evaluable)) was 1.8 (1.7, 2.8) Months. For the same molecule, the “Median Time to Rsp in Months (Range)” value (hematologic malignancies; iNHL (T/E 26/19)) was 1.8 (1.7-4.1) Months, the responses (hematologic malignancies; iNHL) was 1/2 and the “levels of CLL biomarkers in serum” value (serum biomarkers; 25 mg BID) was “decrease”. For the same molecule, the “levels of T-cell lymphoma biomarkers in serum” value (serum biomarkers; 25 mg BID) was “decrease”, the “levels of iNHL biomarkers in serum” value (serum biomarkers; 25 mg BID) was “decrease” and the “levels of lymphoma biomarkers in serum” value (serum biomarkers; 25 mg BID) was “decrease”. For the same molecule, the “levels of CLL biomarkers in serum” value (serum biomarkers; 25 mg or 75 mg BID) was “decrease”, the “levels of iNHL biomarkers in serum” value (serum biomarkers; 25 mg or 75 mg BID) was “decrease” and the locomotor activity (central nervous system; 2 h after a 350 mg/kg dose) was “Significant decreases”. For the same molecule, the “effects on the central nervous system” value (central nervous system; dose levels ≦50 mg/kg) was “No effects”.
